Source: patent EP0913399A1, “Silver -2-mercapto sodium benzoate pharmaceutical compound and process for obtaining the same” (Korban Medical S.a.s. di Longhetti Gianna & C., priority 1997, dated 1999)
Counter-ions that a name gives are not always drawn.

Key:
tested organism = assay: MIC comparison of equivalent ionic doses of Ag^+ from thiometal and from nitrate; antibacterial action of the anion; format: cell-based
solubility = format: physicochemical
[1] = effects to the skin (photosensitization, irritating, caustic)

| Structure (SMILES) | antibacterical action (tested organism) | activity in MIC in favour of the thiometal (tested organism; comparison of equivalent ionic doses of Ag^+ from thiometal and from nitrate, variable depending on the tested organism) [mcg/ml] | Solubility (solubility; DMSO) | Solubility (solubility; absolute ethanol) | Solubility (solubility; acetone) | Solubility (solubility; ether) | Solubility (solubility; water (cold)) | caustic effects to the skin [1] | irritating effects to the skin [1] | photosensitization [1] |
| --- | --- | --- | --- | --- | --- | --- | --- | --- | --- | --- |
| O=C(O)c1ccccc1S [mercapto sodium benzoate anion, sodium salt of the 2-mercaptobenzoic acid, reference compound] | does not develop an antibacterical action |  |  |  |  |  |  |  |  |  |
| O=C(O)c1ccccc1[S][Ag] [silver-2-mercapto sodium benzoate] |  | -1.6 to -50 | moderately soluble | insoluble | insoluble | insoluble | soluble | does not cause | does not cause | does not cause |
